How the values were obtained:
Assay in all cases: KINOMEscan competition binding
Details in all cases: compound 10.0 µM
[1] = tested on: KIT (human), P10721 [V559D]
MAP4K4 (human) = MAP4K4 (human) (UniProt O95819)
MAPK14 (human) = MAPK14 (human) (UniProt Q16539)
PDGFRA (human) = PDGFRA (human) (UniProt P16234)
EPHB2 (human) = EPHB2 (human) (UniProt P29323)
CAMK1G (human) = CAMK1G (human) (UniProt Q96NX5)
FGFR4 (human) = FGFR4 (human) (UniProt P22455)
[2] = biological target: JAK2 JH1 catalytic (human) (UniProt O60674)
ULK3 (human) = ULK3 (human) (UniProt Q6PHR2)
MAPK9 (human) = MAPK9 (human) (UniProt P45984)
[3] = tested on: FLT3 (human), P36888 [D835H]
CDC2L2 (human) = CDC2L2 (human) (UniProt Q9UQ88)
PTK2 (human) = PTK2 (human) (UniProt Q05397)
MAP4K3 (human) = MAP4K3 (human) (UniProt Q8IVH8)
[4] = tested on: ABL1 (human), P00519 [Q252H]
[5] = tested on: RET (human), P07949 [V804M]
MAP4K2 (human) = MAP4K2 (human) (UniProt Q12851)
[6] = biological target: JAK3 JH1 catalytic (human) (UniProt P52333)
CDK8 (human) = CDK8 (human) (UniProt P49336)
DDR1 (human) = DDR1 (human) (UniProt Q08345)
RET (human) = RET (human) (UniProt P07949)
YES1 (human) = YES1 (human) (UniProt P07947)
FLT4 (human) = FLT4 (human) (UniProt P35916)
[7] = tested on: KIT (human), P10721 [V559D/T670I]
PTK2B (human) = PTK2B (human) (UniProt Q14289)
CDK9 (human) = CDK9 (human) (UniProt P50750)
KIT (human) = KIT (human) (UniProt P10721)
CDK5 (human) = CDK5 (human) (UniProt Q00535)
MAP4K1 (human) = MAP4K1 (human) (UniProt Q92918)
TNK1 (human) = TNK1 (human) (UniProt Q13470)
[8] = tested on: RET (human), P07949 [M918T]
MYLK2 (human) = MYLK2 (human) (UniProt Q9H1R3)
CDK19 (human) = CDK19 (human) (UniProt Q9BWU1)
MLTK (human) = MLTK (human) (UniProt Q9NYL2)
CAMKK2 (human) = CAMKK2 (human) (UniProt Q96RR4)
LTK (human) = LTK (human) (UniProt P29376)
MAPK10 (human) = MAPK10 (human) (UniProt P53779)
MKNK2 (human) = MKNK2 (human) (UniProt Q9HBH9)
ERBB4 (human) = ERBB4 (human) (UniProt Q15303)
ANKK1 (human) = ANKK1 (human) (UniProt Q8NFD2)
TNNI3K (human) = TNNI3K (human) (UniProt Q59H18)

Sequence of JAK2 JH1 catalytic (human) (O60674 whole entry, looked up): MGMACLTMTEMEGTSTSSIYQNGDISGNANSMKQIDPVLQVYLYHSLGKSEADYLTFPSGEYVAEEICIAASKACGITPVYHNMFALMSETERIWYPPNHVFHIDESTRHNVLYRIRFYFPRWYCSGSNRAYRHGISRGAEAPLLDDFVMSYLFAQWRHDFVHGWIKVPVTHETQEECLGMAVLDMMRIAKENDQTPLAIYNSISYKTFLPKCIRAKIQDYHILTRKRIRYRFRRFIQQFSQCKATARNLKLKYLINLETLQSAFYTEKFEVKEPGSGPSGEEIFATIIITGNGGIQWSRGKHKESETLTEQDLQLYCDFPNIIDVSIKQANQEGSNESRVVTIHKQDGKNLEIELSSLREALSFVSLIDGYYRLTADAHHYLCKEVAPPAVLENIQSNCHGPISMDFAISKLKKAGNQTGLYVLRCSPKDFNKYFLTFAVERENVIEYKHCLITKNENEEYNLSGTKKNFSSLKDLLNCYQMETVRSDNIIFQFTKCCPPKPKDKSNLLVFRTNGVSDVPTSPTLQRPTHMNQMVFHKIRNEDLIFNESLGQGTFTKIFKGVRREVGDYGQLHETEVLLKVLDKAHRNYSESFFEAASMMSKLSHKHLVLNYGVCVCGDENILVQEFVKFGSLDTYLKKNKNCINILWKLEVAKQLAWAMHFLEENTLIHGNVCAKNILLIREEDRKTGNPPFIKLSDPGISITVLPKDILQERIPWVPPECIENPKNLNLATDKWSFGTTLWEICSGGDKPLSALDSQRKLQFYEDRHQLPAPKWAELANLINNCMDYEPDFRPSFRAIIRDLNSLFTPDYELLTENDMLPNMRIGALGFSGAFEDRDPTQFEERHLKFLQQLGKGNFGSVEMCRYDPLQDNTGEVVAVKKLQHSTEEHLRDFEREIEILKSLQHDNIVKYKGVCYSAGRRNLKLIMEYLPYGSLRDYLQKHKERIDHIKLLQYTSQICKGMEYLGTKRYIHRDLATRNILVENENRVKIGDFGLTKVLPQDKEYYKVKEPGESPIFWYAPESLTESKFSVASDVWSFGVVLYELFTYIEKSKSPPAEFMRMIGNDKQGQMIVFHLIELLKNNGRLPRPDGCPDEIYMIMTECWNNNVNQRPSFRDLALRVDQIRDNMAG
Sequence of RET (human), P07949 [V804M] (P07949 whole entry V804M, looked up): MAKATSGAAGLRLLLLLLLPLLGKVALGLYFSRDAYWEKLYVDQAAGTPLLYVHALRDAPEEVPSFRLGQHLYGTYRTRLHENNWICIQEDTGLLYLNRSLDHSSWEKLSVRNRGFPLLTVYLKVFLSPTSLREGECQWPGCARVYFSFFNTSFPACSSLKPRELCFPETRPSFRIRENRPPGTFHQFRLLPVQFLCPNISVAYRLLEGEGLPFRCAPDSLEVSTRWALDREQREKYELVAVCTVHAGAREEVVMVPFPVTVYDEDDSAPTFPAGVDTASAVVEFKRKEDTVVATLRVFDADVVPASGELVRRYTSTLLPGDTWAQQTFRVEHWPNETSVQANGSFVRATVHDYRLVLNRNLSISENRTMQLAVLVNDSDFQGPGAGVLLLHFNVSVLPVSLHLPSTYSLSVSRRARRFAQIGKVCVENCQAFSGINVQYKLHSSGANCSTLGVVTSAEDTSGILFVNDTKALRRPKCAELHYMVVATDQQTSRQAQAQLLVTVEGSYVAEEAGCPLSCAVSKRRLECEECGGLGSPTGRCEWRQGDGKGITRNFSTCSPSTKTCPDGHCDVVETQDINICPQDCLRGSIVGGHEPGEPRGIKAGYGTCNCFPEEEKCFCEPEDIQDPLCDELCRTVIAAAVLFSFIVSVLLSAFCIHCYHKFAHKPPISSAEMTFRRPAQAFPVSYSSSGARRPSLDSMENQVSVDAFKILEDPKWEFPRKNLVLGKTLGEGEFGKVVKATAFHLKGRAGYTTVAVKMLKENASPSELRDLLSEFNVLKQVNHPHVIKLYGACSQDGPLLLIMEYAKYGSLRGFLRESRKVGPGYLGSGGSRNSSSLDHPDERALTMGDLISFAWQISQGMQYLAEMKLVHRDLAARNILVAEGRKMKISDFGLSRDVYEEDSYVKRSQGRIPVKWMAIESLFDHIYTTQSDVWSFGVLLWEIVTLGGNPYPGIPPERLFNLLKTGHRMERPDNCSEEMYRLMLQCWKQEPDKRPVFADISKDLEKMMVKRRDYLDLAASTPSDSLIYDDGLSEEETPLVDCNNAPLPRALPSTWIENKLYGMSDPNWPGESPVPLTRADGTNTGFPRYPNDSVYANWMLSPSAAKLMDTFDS
Sequence of CDK8 (human) (P49336 whole entry, looked up): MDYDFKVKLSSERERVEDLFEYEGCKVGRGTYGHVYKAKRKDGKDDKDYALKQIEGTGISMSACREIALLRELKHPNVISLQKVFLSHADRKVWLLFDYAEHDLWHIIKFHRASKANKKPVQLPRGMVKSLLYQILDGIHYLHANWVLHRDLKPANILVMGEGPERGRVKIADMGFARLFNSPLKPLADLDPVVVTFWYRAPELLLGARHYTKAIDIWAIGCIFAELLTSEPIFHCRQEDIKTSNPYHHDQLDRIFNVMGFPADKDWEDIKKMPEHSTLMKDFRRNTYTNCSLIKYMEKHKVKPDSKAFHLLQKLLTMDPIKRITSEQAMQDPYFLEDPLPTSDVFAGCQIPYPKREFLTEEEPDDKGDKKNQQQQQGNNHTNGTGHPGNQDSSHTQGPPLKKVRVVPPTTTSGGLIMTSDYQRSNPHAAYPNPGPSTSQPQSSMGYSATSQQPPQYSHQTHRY
Sequence of RET (human), P07949 [M918T] (P07949 whole entry M918T, looked up): as the sequence (P07949 whole entry V804M, looked up) above, with M804V, M918T counted along it
Sequence of FLT4 (human) (P35916 whole entry, looked up): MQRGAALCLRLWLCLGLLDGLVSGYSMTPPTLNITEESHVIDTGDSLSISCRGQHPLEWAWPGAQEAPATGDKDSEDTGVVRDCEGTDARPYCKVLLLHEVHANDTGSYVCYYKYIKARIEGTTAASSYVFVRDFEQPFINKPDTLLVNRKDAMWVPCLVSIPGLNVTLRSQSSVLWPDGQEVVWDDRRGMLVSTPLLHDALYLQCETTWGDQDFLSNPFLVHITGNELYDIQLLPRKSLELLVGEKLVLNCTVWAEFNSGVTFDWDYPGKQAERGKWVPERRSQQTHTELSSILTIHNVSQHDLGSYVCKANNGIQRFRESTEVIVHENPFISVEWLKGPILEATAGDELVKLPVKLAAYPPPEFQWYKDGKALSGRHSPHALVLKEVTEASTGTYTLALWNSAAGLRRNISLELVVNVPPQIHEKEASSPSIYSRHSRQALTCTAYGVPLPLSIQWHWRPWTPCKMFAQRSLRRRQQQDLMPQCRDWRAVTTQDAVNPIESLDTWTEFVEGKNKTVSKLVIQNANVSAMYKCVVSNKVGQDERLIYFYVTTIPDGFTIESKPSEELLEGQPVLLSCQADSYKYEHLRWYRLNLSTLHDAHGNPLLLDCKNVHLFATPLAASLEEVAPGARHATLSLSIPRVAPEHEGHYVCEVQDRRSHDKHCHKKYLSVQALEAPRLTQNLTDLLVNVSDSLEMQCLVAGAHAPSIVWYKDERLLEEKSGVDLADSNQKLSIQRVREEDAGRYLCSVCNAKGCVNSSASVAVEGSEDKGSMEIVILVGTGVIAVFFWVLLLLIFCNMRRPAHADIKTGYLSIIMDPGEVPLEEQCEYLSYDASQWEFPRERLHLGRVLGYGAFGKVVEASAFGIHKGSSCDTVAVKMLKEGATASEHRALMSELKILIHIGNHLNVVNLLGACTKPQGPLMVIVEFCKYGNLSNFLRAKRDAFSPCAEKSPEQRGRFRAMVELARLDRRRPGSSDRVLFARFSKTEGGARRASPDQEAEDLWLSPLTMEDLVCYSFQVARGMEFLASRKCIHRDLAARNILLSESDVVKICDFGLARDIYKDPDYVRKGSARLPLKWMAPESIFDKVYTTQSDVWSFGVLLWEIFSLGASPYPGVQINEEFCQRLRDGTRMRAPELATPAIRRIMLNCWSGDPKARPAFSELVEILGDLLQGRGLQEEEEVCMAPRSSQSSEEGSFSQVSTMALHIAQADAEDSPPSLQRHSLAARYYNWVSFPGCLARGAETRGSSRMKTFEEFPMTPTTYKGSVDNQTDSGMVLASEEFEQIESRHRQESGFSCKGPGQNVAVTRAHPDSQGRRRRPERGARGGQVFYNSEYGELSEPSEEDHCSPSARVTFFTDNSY
Sequence of MYLK2 (human) (Q9H1R3 whole entry, looked up): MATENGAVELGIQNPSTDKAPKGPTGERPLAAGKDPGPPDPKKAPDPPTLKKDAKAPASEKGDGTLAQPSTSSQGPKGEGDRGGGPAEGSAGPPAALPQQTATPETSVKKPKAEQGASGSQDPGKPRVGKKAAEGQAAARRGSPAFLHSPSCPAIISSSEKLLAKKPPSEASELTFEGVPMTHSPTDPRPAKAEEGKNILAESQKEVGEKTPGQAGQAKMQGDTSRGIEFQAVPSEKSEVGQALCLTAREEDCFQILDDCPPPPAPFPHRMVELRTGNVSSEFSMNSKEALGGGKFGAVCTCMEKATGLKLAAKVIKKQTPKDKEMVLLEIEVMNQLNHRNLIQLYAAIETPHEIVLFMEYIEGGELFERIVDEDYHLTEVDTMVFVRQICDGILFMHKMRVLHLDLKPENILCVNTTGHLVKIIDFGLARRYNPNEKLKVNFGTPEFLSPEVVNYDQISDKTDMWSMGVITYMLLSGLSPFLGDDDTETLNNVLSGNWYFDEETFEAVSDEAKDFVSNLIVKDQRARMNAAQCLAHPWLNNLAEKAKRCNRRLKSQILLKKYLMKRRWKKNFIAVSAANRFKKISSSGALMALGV
Sequence of RET (human) (P07949 whole entry, looked up): as the sequence (P07949 whole entry V804M, looked up) above, with M804V counted along it
Sequence of CDK5 (human) (Q00535 whole entry, looked up): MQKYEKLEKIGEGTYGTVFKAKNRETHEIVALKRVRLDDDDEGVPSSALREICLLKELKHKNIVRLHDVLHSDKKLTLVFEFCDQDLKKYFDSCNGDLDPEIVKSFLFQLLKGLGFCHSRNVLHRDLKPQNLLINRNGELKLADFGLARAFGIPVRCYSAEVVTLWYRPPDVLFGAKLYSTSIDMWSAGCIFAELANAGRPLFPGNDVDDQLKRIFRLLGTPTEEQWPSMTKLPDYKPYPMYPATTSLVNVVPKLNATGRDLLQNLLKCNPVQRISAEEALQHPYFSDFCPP

- kinase still bound, per cent of control [1]: 0%
- kinase still bound, per cent of control (MAP4K4 (human)): 0%
- kinase still bound, per cent of control (MAPK14 (human)): 0%
- kinase still bound, per cent of control (PDGFRA (human)): 0.6%
- kinase still bound, per cent of control (EPHB2 (human)): 11%
- kinase still bound, per cent of control (CAMK1G (human)): 20%
- kinase still bound, per cent of control (FGFR4 (human)): 0.45%
- kinase still bound, per cent of control [2]: 11%
- kinase still bound, per cent of control (ULK3 (human)): 0.1%
- kinase still bound, per cent of control (MAPK9 (human)): 0%
- kinase still bound, per cent of control [3]: 1.2%
- residual activity (CDC2L2 (human)): 0.05%
- kinase still bound, per cent of control (PTK2 (human)): 23%
- kinase still bound, per cent of control (MAP4K3 (human)): 18%
- kinase still bound, per cent of control [4]: 0.4%
- kinase still bound, per cent of control [5]: 1%
- kinase still bound, per cent of control (MAP4K2 (human)): 0.3%
- kinase still bound, per cent of control [6]: 2.4%
- residual activity (CDK8 (human)): 3.9%
- kinase still bound, per cent of control (DDR1 (human)): 0.05%
- kinase still bound, per cent of control (RET (human)): 0%
- kinase still bound, per cent of control (YES1 (human)): 1.6%
- kinase still bound, per cent of control (FLT4 (human)): 0.2%
- kinase still bound, per cent of control [7]: 0.05%
- kinase still bound, per cent of control (PTK2B (human)): 2.1%
- residual activity (CDK9 (human)): 5.8%
- kinase still bound, per cent of control (KIT (human)): 0%
- residual activity (CDK5 (human)): 19%
- kinase still bound, per cent of control (MAP4K1 (human)): 1.6%
- kinase still bound, per cent of control (TNK1 (human)): 0.35%
- kinase still bound, per cent of control [8]: 0%
- kinase still bound, per cent of control (MYLK2 (human)): 8.4%
- residual activity (CDK19 (human)): 0.1%
- kinase still bound, per cent of control (MLTK (human)): 0.35%
- kinase still bound, per cent of control (CAMKK2 (human)): 28%
- kinase still bound, per cent of control (LTK (human)): 1.2%
- kinase still bound, per cent of control (MAPK10 (human)): 12%
- kinase still bound, per cent of control (MKNK2 (human)): 4.2%
- kinase still bound, per cent of control (ERBB4 (human)): 28%
- kinase still bound, per cent of control (ANKK1 (human)): 23%
- kinase still bound, per cent of control (TNNI3K (human)): 4.8%
Compound: CCN1CCN(Cc2ccc(NC(=O)c3ccc(C)c(Oc4ccnc5[nH]ccc45)c3)cc2C(F)(F)F)CC1

Source: the kinase profiling compilation of Christmann-Franck et al. (2016)
